Like-named read-outs stand apart in the source and are kept apart here.
What was measured:
[1] = biological target: T1, Full-length wild type HIV-1 integrase (SF1) (Human immunodeficiency virus type 1 group M subtype B, UniProt P04585); experiment: Integrase strand-transfer scintillation proximity assay; type: biochemical
T1 construct: made in house; host or cells: E. coli BL21 (DE3), pET24a vector
Description: Integrase Strand-Transfer Scintillation Proximity Assay Oligonucleotides
The annealed product represents preprocessed viral ds-DNA derived from the LTR U5 sequence of the viral genome. A ds-DNA control to test for non-specific interactions was made using a 3′ di-deoxy derivative of oligonucleotide #1 annealed to oligonucleotide #2. The CA overhang at the 5′ end of the non-biotinylated strand of the ds-DNA was created artificially by using a complimentary DNA oligonucleotide shortened by 2 base pairs. This configuration eliminates the requisite 3′ processing step of the integrase enzyme prior to the strand-transfer mechanism.
Host ds-DNA was prepared as an unlabeled and [^3H]-thymidine labeled product from annealed oligonucleotide #3—5-[…]-3′ (SEQ ID NO: 3), and oligonucleotide #4—5′-[…]-3′ (SEQ ID NO: 4), both synthesized by TriLink BioTechnologies, Inc. (San Diego, Calif.). The annealed product had overhanging 3′ ends of poly(dA). […] The radiolabeled product was purified using a NENSORB cartridge and stored in stabilized aqueous solution (PerkinElmer).
Reagents: Streptavidin-coated polyvinyltoluene (PVT) SPA beads were purchased from Amersham Biosciences (Piscataway, N.J.). Cesium chloride was purchased from Shelton Scientific, Inc. (Shelton, Conn.). White, polystyrene, flat-bottom, non-binding surface, 96-well plates were purchased from Corning. All other buffer components were purchased from Sigma (St. Louis, Mo.) unless otherwise indicated. Enzyme Construction: Full-length wild type HIV-1 integrase (SF1) sequence (amino acids 1-288) was constructed in a pET24a vector (Novagen, Madison, Wis.). […] Enzyme Purification: Full length wild-type HIV Integrase was expressed in E.coli BL21 (DE3) cells and induced with 1 mM isopropyl-1 thio-β-D-galactopyranoside (IPTG) when cells reached an optical density between 0.8-1.0 at 600 nm. Cells were lysed by microfluidation in 50 mM HEPES pH 7.0, 75 mM NaCl, 5 mM DTT, 1 mM 4-(2-Aminoethyl)benzenesulfonylfluoride HCl (AEBSF). Lysate was then centrifuged 20 minutes at 11 k rpm in GSA rotor in Sorvall RC-5B at 4° C. Supernant was discarded and pellet resuspended in 50 mM HEPES pH 7.0, 750 mM NaCl, 5 mM DTT, 1 mM AEBSF and homogenized in a 40 mL Dounce homogenizer for 20 minutes on ice. Homogenate was then centrifuged 20 minutes at 11 k rpm in SS34 rotor in Sorvall RC-5B at 4° C. Supernant was discarded and pellet resuspended in 50 mM HEPES pH 7.0, 750 mM NaCl, 25 mM CHAPS, 5 mM DTT, 1 mM AEBSF. Preparation was then centrifuged 20 minutes at 11 k rpm in SS34 rotor in Sorvall RC-5B at 4° C.
Supernant was then diluted 1:1 with 50 mM HEPES pH 7.0, 25 mM CHAPS, 1 mM DTT, 1 mM AEBSF and loaded onto a Q-Sepharose column pre-equilibrated with 50 mM HEPES, pH 7.0, 375 mM NaCl, 25 mM CHAPS, 1 mM DTT, 1 mM AEBSF. The flow through peak was collected and NaCl diluted to 0.1 M with 50 mM HEPES pH 7.0, 25 mM CHAPS, 1 mM DTT, 0.5 mM AEBSF and loaded onto a SP-Sepharose column pre-equilibrated with 50 mM HEPES pH 7.0, 100 mM NaCl, 25 mM CHAPS, 1 mM DTT, 0.5 mM AEBSF. After washing the column with the equilibration buffer, a 100 to 400 mM NaCl gradient was run. The eluted integrase was concentrated and run on a S-300 gel diffusion column using 50 mM HEPES pH 7.0, 500 mM NaCl, 25 mM CHAPS, 1 mM DTT, 0.5 mM AEBSF. […] All columns were run in a 4° C. cold room.
Viral DNA Bead Preparation: Streptavidin-coated SPA beads were suspended to 20 mg/mL in 25 mM 3-morpholinopropanesulfonic acid (MOPS) (pH 7.2) and 1.0% NaN3.

[2] = test system: RF strain of HIV-1 in CEM-SS cells; experiment: HIV-1 cell protection assay (XTT dye reduction); type: cell-based; details: Human immunodeficiency virus 1, CEM-SS, 144 h, HIV-1 RF, six days
Experimental: HIV-1 Cell Protection Assay
The antiviral activities of potential modulator compounds (test compounds) were determined in HIV-1 cell protection assays using the RF strain of HIV-1, CEM-SS cells, and the XTT dye reduction method (Weislow, O. S. et al., J. Natl. Cancer Inst. 81: 577-586 (1989)). Subject cells were infected with HIV-1 RF virus at an moi of 0.025 to 0.819 or mock infected with medium only and added at 2×10^4 cells per well into 96 well plates containing half-log dilutions of test compounds. Six days later, 50 μl of XTT solution (1 mg/ml XTT tetrazolium and […] phenazine methosulfate) were added to the wells and the plates were reincubated for four hours. Viability, as determined by the amount of XTT formazan produced, was quantified spectrophotometrically by absorbance at 450 nm.
Data from CPE assays were expressed as the percent of formazan produced in compound-treated cells compared to formazan produced in wells of uninfected, compound-free cells. […] The therapeutic index was calculated by dividing the cytotoxicity (CC50) by the antiviral activity (EC50).

[3] = integrase strand-transfer SPA, read-out: IC50

SMILES	IC50 [1, 3] [nM]	EC50 [2] [nM]	IC50 ([1]; IC50, integrase strand-transfer SPA) [nM]
C[C@@H](OCc1cn(Cc2ccc(F)cc2)c2cnc3c(=O)n(O)ccc3c12)c1ccccc1 [Example 38, 3-(4-fluorobenzyl)-7-hydroxy-1-{[(1R)-1-phenylethoxy]methyl}-3,7-dihydro-6H-pyrrolo[2,3-c]-1,7-naphthyridin-6-one]	120	0.3	
COCCOCc1cn(Cc2ccc(F)cc2)c2cnc3c(=O)n(O)ccc3c12 [Example 9, 3-(4-fluorobenzyl)-7-hydroxy-1-[(2-methoxyethoxy)methyl]-3,7-dihydro-6H-pyrrolo[2,3-c]-1,7-naphthyridin-6-one]	15	0.53	
CCCNCc1cn(Cc2ccc(F)cc2)c2cnc3c(=O)n(O)ccc3c12 [Example 40, 3-(4-fluorobenzyl)-7-hydroxy-1-[(propylamino)methyl]-3,7-dihydro-6H-pyrrolo[2,3-c]-1,7-naphthyridin-6-one]	62		
CCN(Cc1ccc(C)cc1)Cc1cn(Cc2ccc(F)cc2)c2cnc3c(=O)n(O)ccc3c12 [Example 51, 1-{[ethyl(4-methylbenzyl)amino]methyl}-3-(4-fluorobenzyl)-7-hydroxy-3,7-dihydro-6H-pyrrolo[2,3-c]-1,7-naphthyridin-6-one]	17.5		
CN(CCc1ccccn1)Cc1cn(Cc2ccc(F)cc2)c2cnc3c(=O)n(O)ccc3c12 [Example 16, 3-(4-fluorobenzyl)-7-hydroxy-1-{[methyl (2-pyridin-2-ylethyl)amino]methyl}-3,7-dihydro-6H-pyrrolo[2,3-c]-1,7-naphthyridin-6-one]	6		
CN(C)Cc1cn(Cc2ccc(F)cc2)c2cnc3c(=O)n(O)ccc3c12 [Example 4, 1-[(dimethylamino)methyl]-3-(4-fluorobenzyl)-7-hydroxy-3,7-dihydro-6H-pyrrolo[2,3-c]-1,7-naphthyridin-6-one]	8		
NC(=O)[C@@H]1CCCN1Cc1cn(Cc2ccc(F)cc2)c2cnc3c(=O)n(O)ccc3c12 [Example 5, 1-{[3-(4-fluorobenzyl)-7-hydroxy-6-oxo-6,7-dihydro-3H-pyrrolo[2,3-c]-1,7-naphthyridin-1-yl]methyl}-L-prolinamide]			18
CCN1CCN(Cc2cn(Cc3ccc(F)cc3)c3cnc4c(=O)n(O)ccc4c23)CC1 [Example 8, 1[(4-ethylpiperazin-1-yl)methyl]-3-(4-fluorobenzyl)-7-hydroxy-3,7-dihydro-6H-pyrrolo[2,3-c]-1,7-naphthyridin-6-one]	14		

Source: US7692014B2, “Inhibitors of the HIV integrase enzyme” (Pfizer, Inc., priority 2004, dated 2010)
